These results are taken from ChEMBL document CHEMBL1201862, “PubChem BioAssay data set” (2004).

SMILES strings stand for the structures.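 1) Cells in 96-well plates. 2) Compound, 48 h, 5 concentrations. 3) Linear interpolation between surrounding doses. 4) Unreached endpoint = highest concentration. GI50 is the concentration that inhibits growth by half.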 The source made the active and inactive calls. No stated cut-off is given here; in the data, active = GI50 up to about 1.1 µM and inactive = higher.

Among the test systems are OVCAR-4; HCC 2998; HT-29; M14; IGROV-1; ACHN; A549; DU-145; NCI-H226; SNB-75; LOX IMVI; T47D; NCI-H23; SF-295; A498; MOLT-4; SN12C; CCRF-CEM; NCI-H522; HOP-92.
Holding throughout (test): NCI anticancer screen, dose series, 48 h

For the compound `COC(=O)c1ccccc1CC(Cc1ccccc1)C(=O)OC` (stereo unspecified), the GI50 was 96.8 µM (inactive) in the test with OVCAR-4; 40.3 µM (inactive) with HCC 2998; 55.5 µM (inactive) in the test with HT-29; 68.7 µM (inactive) in the test with M14; > 100 µM (inactive) in the test on IGROV-1; > 100 µM (inactive) in the test on ACHN. Further, the GI50 with A549 was 61.9 µM (inactive); in the test on DU-145, > 100 µM (inactive); in the test on NCI-H226, 43.1 µM (inactive); in the test on SNB-75, 20 µM (inactive); in the test with LOX IMVI, 58.9 µM (inactive); in the test with T47D it was > 10 µM (inactive). Further, the GI50 in the test with NCI-H23 was 46.6 µM (inactive); with SF-295 it was > 100 µM (inactive); in the test on A498, 92.5 µM (inactive); with MOLT-4, 27.4 µM (inactive); with SN12C it was > 100 µM (inactive); in the test with CCRF-CEM, 87.9 µM (inactive). Also, in the test with NCI-H522, the GI50 was 50.6 µM (inactive).
On to `CCCCNC(=O)c1cc(S(=O)(=O)n2ccnc2O)c(SC)cc1Cl`, for which the GI50 with OVCAR-4, with HCC 2998, in the test on HT-29, in the test with M14, in the test on IGROV-1 and with ACHN was > 100 µM (inactive) in each case. The GI50 in the test on A549, with DU-145, with LOX IMVI, in the test with T47D, with NCI-H23 and in the test on SF-295 was > 100 µM (inactive) throughout. In addition, the GI50 in the test on A498 is 26.1 µM (inactive); in the test on MOLT-4 it was > 100 µM (inactive); in the test on SN12C, > 100 µM (inactive); with CCRF-CEM, > 100 µM (inactive); in the test on NCI-H522 it was > 100 µM (inactive).
`COC(=O)CN(C)P(=O)(N1CC1)N1CC1`: the GI50 with OVCAR-4 was > 100 µM (inactive); in the test with HCC 2998 it was > 100 µM (inactive); in the test on HT-29, > 100 µM (inactive); in the test on M14, > 100 µM (inactive); in the test with IGROV-1, > 100 µM (inactive); with ACHN, 71.4 µM (inactive). Further, the GI50 with A549 was > 100 µM (inactive); in the test on SNB-75, > 100 µM (inactive); in the test on LOX IMVI, 76 µM (inactive); in the test on NCI-H23 it was 83.4 µM (inactive); in the test on SF-295 it was 90.2 µM (inactive); in the test on MOLT-4 it was 33 µM (inactive). Besides, the GI50 with SN12C was 69.5 µM (inactive); in the test on CCRF-CEM, 36.9 µM (inactive); in the test with NCI-H522, > 100 µM (inactive).
Turning to `CCN(CC)/[N+]([O-])=N/O`, the GI50 in the test on HCC 2998, in the test with HT-29, in the test with M14, with IGROV-1, with ACHN and in the test with HOP-92 was > 100 µM (inactive) throughout. Besides, the GI50 in the test with A549, in the test with NCI-H226, in the test on LOX IMVI, in the test on NCI-H23, in the test with SF-295 and in the test with A498 was > 100 µM (inactive) each time. The GI50 in the test with MOLT-4, in the test with SN12C, with CCRF-CEM and in the test on NCI-H522 was > 100 µM (inactive) throughout.
As to `CSC1SCC2C(=O)N(C)C(C(C)C)C(=O)OCC(NC(=O)c3cnc4ccccc4n3)C(=O)NC(C)C(=O)N(C)C1C(=O)N(C)C(C(C)C)C(=O)OCC(NC(=O)c1cnc3ccccc3n1)C(=O)NC(C)C(=O)N2C` (stereo unspecified), the GI50 was 0.0075 µM (active) in the test with OVCAR-4; 0.0075 µM (active) in the test on HCC 2998; 0.0075 µM (active) in the test on HT-29; 0.000828 µM (active) in the test on M14; 0.0075 µM (active) in the test on IGROV-1; 0.0075 µM (active) in the test on A549. For the same compound, the GI50 in the test with DU-145 was 0.0031 µM (active); with NCI-H226, 0.0075 µM (active); with T47D, 0.000391 µM (active); in the test with SF-295, 0.0075 µM (active); in the test on A498 it was 0.0075 µM (active); in the test on MOLT-4, 0.0075 µM (active). The GI50 in the test on SN12C is 0.0075 µM (active); with CCRF-CEM, 0.00925 µM (active).
Consider `CCNC(=S)NNC(=O)c1nsc2ccccc12`, for which the GI50 in the test on OVCAR-4 was > 100 µM (inactive); in the test on HCC 2998 it was > 100 µM (inactive); in the test on HT-29, 72.1 µM (inactive); in the test on M14 it was > 100 µM (inactive); in the test on IGROV-1, > 100 µM (inactive); in the test on ACHN, > 100 µM (inactive). Further, the GI50 with HOP-92 was 85.7 µM (inactive); with A549, > 100 µM (inactive); in the test on SNB-75 it was 34.5 µM (inactive); with LOX IMVI, 64.9 µM (inactive); with NCI-H23, > 100 µM (inactive); with MOLT-4 it was 50.9 µM (inactive). Moreover, the figures for the GI50 in the test with SN12C and with CCRF-CEM were 55.1 µM (inactive) and 31 µM (inactive), respectively.
`CN(C)C(=O)Oc1c(Br)cc(Br)cc1C(=O)OCc1ccccc1`: the GI50 with OVCAR-4 was 33 µM (inactive); in the test on HCC 2998, 36.1 µM (inactive); in the test on HT-29 it was 13.5 µM (inactive); in the test with IGROV-1, 28.6 µM (inactive); in the test with HOP-92 it was 16.8 µM (inactive); with A549, 28.1 µM (inactive). For the same compound, the GI50 with NCI-H226 was 28.7 µM (inactive); in the test on SNB-75 it was 32 µM (inactive); in the test with LOX IMVI, 22.8 µM (inactive); in the test on NCI-H23, 30.6 µM (inactive); in the test with SF-295, 20.9 µM (inactive); with A498, 23 µM (inactive). The GI50 in the test on MOLT-4 is 17.5 µM (inactive); with SN12C, 20.8 µM (inactive); in the test on CCRF-CEM it was 19.3 µM (inactive); in the test with NCI-H522, 34.8 µM (inactive).
As to `O=c1c(-c2ccccc2)c(SCCN2CCOCC2)n(-c2ccccc2)c(=S)n1-c1ccccc1`, the GI50 is 32.1 µM (inactive) in the test on OVCAR-4; > 100 µM (inactive) in the test on HCC 2998; > 100 µM (inactive) with IGROV-1; > 100 µM (inactive) with ACHN; 25.2 µM (inactive) in the test with HOP-92; > 100 µM (inactive) in the test with DU-145. Also, the GI50 in the test with NCI-H226 was 35.3 µM (inactive); with SNB-75 it was 26.4 µM (inactive); in the test on LOX IMVI, > 100 µM (inactive); in the test with NCI-H23, > 100 µM (inactive); with SF-295 it was 83.6 µM (inactive); in the test with A498, > 100 µM (inactive). Besides, the GI50 is > 100 µM (inactive) in the test on MOLT-4, > 100 µM (inactive) in the test with CCRF-CEM and 51.5 µM (inactive) with NCI-H522.
For the compound `COc1ccc(/N=C\c2ccc(N(CCC#N)S(=O)(=O)c3ccccc3)cc2C)cc1`, the GI50 in the test with OVCAR-4 was 74.6 µM (inactive); in the test with HCC 2998, 32 µM (inactive); in the test on HT-29, 53.7 µM (inactive); in the test with M14 it was 14.6 µM (inactive); with IGROV-1 it was 64.1 µM (inactive); in the test on ACHN it was 15.6 µM (inactive). Moreover, the GI50 is > 100 µM (inactive) with HOP-92; 26.5 µM (inactive) in the test with A549; > 100 µM (inactive) in the test on NCI-H226; > 100 µM (inactive) in the test on SNB-75; 43 µM (inactive) in the test on NCI-H23; 63.2 µM (inactive) with SF-295. The GI50 was 27.4 µM (inactive) with MOLT-4, > 100 µM (inactive) in the test with SN12C, 30.2 µM (inactive) with CCRF-CEM and > 100 µM (inactive) with NCI-H522.
Consider `O=C(Nc1ccc([N+](=O)[O-])cc1)C(=O)C(C(=O)c1ccccc1F)C1OC(=O)c2ccccc21` (stereo unspecified), for which the GI50 in the test on OVCAR-4 was 42.8 µM (inactive); in the test on HCC 2998, 21 µM (inactive); with HT-29, 51.9 µM (inactive); in the test with M14, 69.7 µM (inactive); with IGROV-1, 64.9 µM (inactive); in the test on ACHN, 58.5 µM (inactive). In addition, the GI50 with HOP-92 is > 100 µM (inactive); with A549, 67.6 µM (inactive); in the test on NCI-H226, 16.6 µM (inactive); in the test on SNB-75 it was 30.2 µM (inactive); in the test on LOX IMVI, 17.7 µM (inactive); in the test on NCI-H23, 81.1 µM (inactive). Further, the GI50 in the test with SF-295 was 40.3 µM (inactive); with A498, 80.9 µM (inactive); in the test with MOLT-4, 26 µM (inactive); in the test on SN12C, 30.8 µM (inactive); with CCRF-CEM it was 16.6 µM (inactive); in the test with NCI-H522, 14.7 µM (inactive).
For `Nc1nc2ccc3ccccc3c2[nH]1`, the GI50 in the test with OVCAR-4, in the test on HCC 2998, with HT-29, with M14, with IGROV-1 and in the test on ACHN was > 10 µM (inactive) in each case. Also, the GI50 in the test on A549 was > 10 µM (inactive); in the test with DU-145, > 10 µM (inactive); with NCI-H226, 8.51 µM (inactive); in the test with SNB-75, > 10 µM (inactive); in the test with LOX IMVI, > 10 µM (inactive); in the test with T47D, > 10 µM (inactive). Besides, the GI50 in the test with NCI-H23, in the test with SF-295, in the test on A498, in the test with MOLT-4, in the test with SN12C and with CCRF-CEM was > 10 µM (inactive) each time. Also, in the test on NCI-H522, the GI50 is > 10 µM (inactive).
As for `CC(=O)c1ccccc1NP(=O)(c1ccccc1)c1ccccc1`, the GI50 with OVCAR-4 is 27.5 µM (inactive); with HCC 2998, > 100 µM (inactive); in the test with HT-29, 47.1 µM (inactive); in the test with M14 it was 33.9 µM (inactive); with IGROV-1, 46.5 µM (inactive); in the test with ACHN, > 100 µM (inactive). For the same compound, the GI50 with A549 is 56.9 µM (inactive); with DU-145, > 100 µM (inactive); in the test on LOX IMVI, 90.6 µM (inactive); with T47D it was 43.3 µM (inactive); with NCI-H23, 79.1 µM (inactive); in the test on SF-295, 74.6 µM (inactive). Moreover, the GI50 was 31.4 µM (inactive) with A498; 32.1 µM (inactive) with MOLT-4; 69.5 µM (inactive) in the test on SN12C; 33.5 µM (inactive) in the test with CCRF-CEM; 37.3 µM (inactive) in the test with NCI-H522.
